# Data from ChEMBL document CHEMBL2176884, “ATP-binding site of bacterial enzymes as a target for antibacterial drug design” (J Med Chem, 2011).
# Key:
# [1] = Inhibition of Staphylococcus sp. APH(3')-3a
# Pantothenate synthetase [2] = target: T1, Pantothenate synthetase (Mycobacterium tuberculosis, UniProt P9WIL5); test: Binding affinity to Mycobacterium tuberculosis Pantothenate synthetase
# T1 sequence (P9WIL5 whole entry): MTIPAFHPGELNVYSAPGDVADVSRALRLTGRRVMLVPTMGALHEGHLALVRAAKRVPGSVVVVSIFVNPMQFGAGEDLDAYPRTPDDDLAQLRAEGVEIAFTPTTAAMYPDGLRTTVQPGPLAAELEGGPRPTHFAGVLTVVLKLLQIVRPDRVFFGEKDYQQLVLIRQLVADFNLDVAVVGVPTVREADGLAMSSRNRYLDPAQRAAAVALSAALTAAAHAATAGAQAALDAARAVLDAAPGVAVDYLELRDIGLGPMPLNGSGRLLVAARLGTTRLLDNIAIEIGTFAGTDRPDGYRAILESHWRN
# [3] = Inhibition of EnvZ by strand-transfer assay
# [4] = Inhibition of Escherichia coli His6-tagged ParC/ParE expressed in baculovirus-infected Sf9 cells by gel electrophoresis
# [5] = Inhibition of Saccharomyces cerevisiae Hsp90
# [6] = target: T2, Virulence sensor histidine kinase PhoQ (Salmonella typhimurium (strain LT2 / SGSC1412 / ATCC 700720), UniProt P0DM80); test: Inhibition of Salmonella typhimurium sensor kinase PhoQ; design: species or system Salmonella enterica subsp. enterica serovar Typhimurium
# T2 sequence (P0DM80 whole entry): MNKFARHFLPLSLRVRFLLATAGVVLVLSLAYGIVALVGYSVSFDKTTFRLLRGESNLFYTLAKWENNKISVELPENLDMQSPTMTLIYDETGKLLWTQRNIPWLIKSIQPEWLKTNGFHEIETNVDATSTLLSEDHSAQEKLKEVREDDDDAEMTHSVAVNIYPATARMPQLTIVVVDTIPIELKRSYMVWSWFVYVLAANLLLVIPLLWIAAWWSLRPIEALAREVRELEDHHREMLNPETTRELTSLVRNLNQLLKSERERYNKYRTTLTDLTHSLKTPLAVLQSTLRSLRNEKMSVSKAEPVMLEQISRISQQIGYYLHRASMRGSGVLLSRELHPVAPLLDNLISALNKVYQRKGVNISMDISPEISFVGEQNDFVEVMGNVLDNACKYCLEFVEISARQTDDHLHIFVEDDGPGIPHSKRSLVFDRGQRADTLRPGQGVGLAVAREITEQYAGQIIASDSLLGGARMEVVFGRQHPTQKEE
# [7] = Inhibition of Saccharomyces cerevisiae sensor kinase Sln1
# Pantothenate synthetase [8] = target: T1, Pantothenate synthetase; test: Inhibition of Mycobacterium tuberculosis Pantothenate synthetase
# Haemophilus influenzae = test: Antimicrobial activity against Haemophilus influenzae after broth microdilution method; format: functional
# [9] = Inhibition of Escherichia coli ACCase
# [10] = Inhibition of bacteria biotin carboxylase
# Enterococcus sp. = test: Antimicrobial activity against Enterococcus; format: functional
# Staphylococcus sp. = test: Antimicrobial activity against Staphylococcus; format: functional
# [11] = Inhibition of DNA gyrase
smiles,measurement,setting,value
NCCNS(=O)(=O)c1cccc2cnccc12,Ki,[1],49 µM
COc1ccc2c(c1)cc(CNC(=O)c1cc3ccccc3o1)n2CC(=O)O,Kd,Pantothenate synthetase [2],0.86 µM
CO[C@@H]1[C@@H](OC(N)=O)[C@@H](O)[C@H](Oc2ccc3c(O)c(NC(=O)c4ccc(O)c(CC=C(C)C)c4)c(=O)oc3c2C)OC1(C)C [NOVOBIOCIN],Kd,[3],120 µM
same,IC50,[4],210 nM
C[C@@H]1C[C@H]2O[C@@H]2/C=C\C=C\C(=O)Cc2c(Cl)c(O)cc(O)c2C(=O)O1 [RADICICOL],Kd,[5],19 nM
same,Kd,[6],715 µM
same,IC50,[7],127 µM
C[C@H]1CNCCN1S(=O)(=O)c1cccc2cnccc12,Ki,[1],49 µM
COCC(C)(C)C(O)C(=O)NS(=O)(=O)OC[C@H]1O[C@@H](n2cnc3c(N)ncnc32)[C@H](O)[C@@H]1O (stereo partly specified),Ki,Pantothenate synthetase [8],300 nM
COc1cccc(OC)c1-c1cc2cnc(N)nc2nc1N,MIC,Haemophilus influenzae,0.125 µg/mL
same,IC50,[9],28 nM
CC(C)(C)C(O)C(=O)NS(=O)(=O)OC[C@H]1O[C@@H](n2cnc3c(N)ncnc32)[C@H](O)[C@@H]1O (stereo partly specified),Ki,Pantothenate synthetase [8],300 nM
N=C(N)NCCNS(=O)(=O)c1cccc2cnccc12,Ki,[1],49 µM
CC(C)(C)[C@@H](N)C(=O)NS(=O)(=O)OC[C@H]1O[C@@H](n2cnc3c(N)ncnc32)[C@H](O)[C@@H]1O,Ki,Pantothenate synthetase [8],300 nM
CC(C)(C)C(=O)C(=O)NS(=O)(=O)OC[C@H]1O[C@@H](n2cnc3c(N)ncnc32)[C@H](O)[C@@H]1O,Ki,Pantothenate synthetase [8],300 nM
COc1ccc2c(c1)cc(C)n2CC(=O)O,Kd,Pantothenate synthetase [2],800 µM
Nc1ncc2cc(-c3c(Br)cccc3Br)c(N)nc2n1,MIC,Haemophilus influenzae,0.125 µg/mL
same,IC50,[9],< 5 nM
Cc1ccccc1CN(Cc1ccc2c(c1)OCCO2)C(=O)c1cnc(N)o1,IC50,[10],7 nM
COC(=O)C1CCCC(NCc2n[nH]c3cccc(OCc4cc(Cl)cc(Cl)c4)c23)C1 (stereo unspecified),MIC,Enterococcus sp.,4 µg/mL
same,MIC,Staphylococcus sp.,4 µg/mL
same,IC50,[11],0.25 µg/mL
NCCNS(=O)(=O)c1ccc(Cl)c2ccncc12,Ki,[1],49 µM
Cc1cc(=O)oc2cc(SCc3n[nH]c4cccc(OCc5ccc(C(C)(C)C)cc5)c34)ccc12,MNEC,[11],0.03 µg/mL
COCCC(O)C(=O)NS(=O)(=O)OC[C@H]1O[C@@H](n2cnc3c(N)ncnc32)[C@H](O)[C@@H]1O (stereo partly specified),Ki,Pantothenate synthetase [8],300 nM
O=S(=O)(c1ccc(Cl)c2ccncc12)N1CCNCC1,Ki,[1],49 µM
